From patent US20250032581A1, “COMPOSITIONS AND ARTICLES COMPRISING AN ADNF POLYPEPTIDE” (RAMOT AT TEL-AVIV UNIVERSITY LTD., priority 2021, published 2025)

How the values were obtained:
Tyr mice [1] = test: Developmental milestone assessment, weight and length of Tyr mouse pups; type: in vivo
Experimental: Animals—Animals were housed under a 12-hour light/dark cycle, with food and water ad-libitum. Mouse pups were subcutaneously administrated with NAP [having an amino acid sequence NAPVSIPQ (SEQ ID NO: 2), 25 μg NAP/1 ml saline] as described (8, 12). At 21 days of age mice were administered daily intranasal NAP in vehicle solution (“DD”—7.5 mg/ml of NaCl, 1.7 mg/ml of citric acid, 3 mg/ml of disodium phosphate dihydrate, and 0.2 mg/ml of 50% benzalkonium chloride solution) (0.5 μg NAP/5p1 DD) (8, 9, 12, and U.S. Pat. No. 10,912,819 to Gozes). These mice continued to behavioral analysis as described hereinbelow. The noninvasive intranasal route was chosen as these experiments required daily handling and administration. Age (weeks) of mice during behavioral experiments (mean±SEM) was as follows: Catwalk—9.23±0.15, grooming—10±0.15, social approach—10.5±0.12, odor-discrimination—12.12±0.13, hanging-wire—13±0.14, hotplate—13.18±0.13. Group size was determined following previous experiments (12). Pups were randomly allocated to either the NAP or DD group according to sex and genotype. All procedures involving animals were conducted under the supervision and approval of the institutional animal care and use committee of Tel Aviv University and the Israeli Ministry of Health.
Developmental milestone assessment and fostering—This experiment included animals from 16 litters in 2 experimental batches. It was performed as previously described (12) with slight modifications. Experimenters were blinded to sex and genotype during experimental procedures. Sexes were grouped if no statistically significant sex differences were discovered.
Additional behavioral assessments— • Fostering: To enable daily handling necessary for developmental milestone assessment and drug treatment, Tyr pups were fostered by ICR females which are known to be excellent dams. Tyr pups were moved after birth to an ICR female mouse who gave birth up to 48 hours prior. ICR litter was culled according to the number of Tyr pups that were added. One day afterwards the remaining ICR pups were euthanized so only Tyr pups were left in the litter. • Pup litter distribution analysis: The genotyping results at p1 after placement with the foster mother was used for this measurement. […] The same day pups were randomized to either NAP or Saline treatment groups according to genotype and sex results and developmental milestone assessment was performed from p1 to p21. As animal randomization ended up with unequal male/female ratios for certain groups and no statistical differences were found between the sexes in any of the 4 treatment groups (T test), the sexes […], [That is except for eye opening, where a significant difference was observed between the sexes in the Tyr group (P=0.047, no significance in the other three treatment groups)]. Pup paws were tattooed using a 31-gauge needle and tattoo ink (Ketchum Manufacturing Co., catalog 329AA) for identification on P1 and, until P21, underwent daily measurements for length and weight and observation for eye opening. Pups were injected daily with NAP, 1 hour prior to the tests as previously described^1.
Briefly, for ear twitch reflex, a cotton tip was gently brushed against the tip of the ear three times, between postnatal days 7-15 or until the pup responded correctly for two consecutive days. For air righting reflex, the pup was held up-side down and released ˜10.5 cm above the cage, containing 5 cm of shavings. The test was performed between postnatal days 8-21 or until the pup landed on the shavings with all four paws, for two consecutive days. For surface righting reflex, pups were placed on their backs on a level surface, the test was performed between postnatal days 1-13 until the pups was able to right itself with all four paws on the surface in under a second for two consecutive days. For eye opening, mice were observed daily until both eyes were open (eyelids separated completely). […]

Tyr-GFP mouse model = test: Dendritic spine quantitation in Tyr-GFP mice; type: in vivo
Experimental: Spine quantitation—For determination of dendritic spine morphology, the Tyr-GFP mouse model was used and generated as described(12). 1.5-2-month-old Tyr-GFP-mice were treated for 9 consecutive days with either intraperitoneal NAP injection (0.4 μg/0.1 ml saline) or with 0.1 ml saline. On day 9, mice were perfused, and brains were subjected to immunohistochemistry and imaging (12).

[2] = test system: AT8 (hyperphosphorylated Tau); test: AT8 immunohistochemistry (hyperphosphorylated Tau); type: in vivo, mouse; conditions: WT males, data not shown
Experimental: AT8 Immunohistochemistry—experiment was performed as previously described (100). Mice were treated for 6 weeks with daily intranasal DD/NAP and were euthanized at 10.21±0.05 weeks of age.

Tyr mice [3] = test: RNA seq of mouse spleens; type: in vivo
Experimental: RNA seq—Total RNA was extracted from 14-week-old mouse spleens and sequenced using standard methods on NextSeq500 system (Illumina) as detailed. Data were analyzed as previously described (9).

BTBR mouse = test: Social recognition in the BTBR mouse; type: in vivo
[4] = cited from earlier work

CC[C@H](C)[C@H](NC(=O)[C@H](CO)NC(=O)[C@@H](NC(=O)[C@@H]1CCCN1C(=O)[C@H](C)NC(=O)[C@@H](N)CC(N)=O)C(C)C)C(=O)N1CCC[C@H]1C(=O)N[C@@H](CCC(N)=O)C(=O)O [NAP, NAPVSIPQ]
rooting reflex (Tyr mice [1]; Tyr mice, data not shown): induced rooting in Tyr mice
surface-righting, first day of acquisition (Tyr mice [1]; Tyr pups, daily s.c. NAP, WT 8.69±0.42, Tyr 10.14±0.36): 8.81 ± 0.33 days
air-righting, first day of acquisition (Tyr mice [1]; Tyr pups, daily s.c. NAP, WT 12.96±0.28, Tyr 15.29±0.15): 14.63 ± 0.38 days
body weight (Tyr mice [1]; WT female mice, data not shown): no effect observed on WT female mice
eye opening (Tyr mice [1]; WT females, data not shown): no NAP effect was observed in WT females
developmental milestones (Tyr mice [1]; WT littermates, data not shown): no effect on WT littermates except for the cliff aversion response
eye opening (Tyr mice [1]; female Tyr mice, Tyr 16±0.37, WT 14.93±0.43): 14.78 ± 0.46 days
eye opening (Tyr mice [1]; males, data not shown): No genotype/NAP effect was observed on males
spine density, motor cortex (Tyr-GFP mouse model; WT females, data not shown): no treatment effect was found on WT females
PSD95 volume in the hippocampus (Tyr-GFP mouse model; female Tyr mice): complete resolution upon NAP treatment
mushroom spine density, motor cortex (Tyr-GFP mouse model; female Tyr mice): NAP significantly affecting the larger, functionally stronger, mushroom shaped spines
increase in spine density, motor cortex L5 layer (Tyr-GFP mouse model; female Tyr mice, i.p. NAP, 9 days): ~17%
AT8 positive cells [2]: did not display a NAP effect
spleen gene expression converging on AKT1, nervous and reproductive systems development (Tyr mice [3]): corrected by NAP
social recognition (BTBR mouse): preference of the mouse, rather than the cup=object chamber
bioavailability / cell penetration [4]: bioavailable by endocytosis
